Results as given in publication PMC5387716, “Discovery of monocarbonyl curcumin-BTP hybrids as STAT3 inhibitors for drug-sensitive and drug-resistant breast cancer therapy” (Scientific Reports, 2017).

How the values were obtained:
[1] = tested on: MCF-10A cells; assay: Annexin V-APC/7-AAD flow cytometry of apoptosis, MCF-10A; format: cell-based, human; conditions: concentrations up to 4 μM
Protocol: MCF-7, MCF-7/DOX or MCF-10A cells, at a density of 2.5 × 10^5 cells per well, were cultured in regular growth medium in 6-well plates for 24 h and treated in duplicate with different concentrations of 6b or curcumin for 24 h. The cells were harvested, washed and stained with 5 μL of Annexin V-APC and 5 μL of 7-AAD at room temperature for 15 min. Cells were then analyzed by flow cytometry (488 nm excitation and 600 nm emission filters) using a BD FACSCalibur flow cytometer (Becton & Dickinson Company, Franklin Lakes, NJ).

[2] = tested on: Cyclin D1; assay: Western blot of Cyclin D1; format: cell-based, human; conditions: MCF-7 and MCF-7/DOX cells, 24 h
Protocol: MCF-7 or MCF-7/DOX cells were incubated with various concentrations of 6b for 24 h. After trypsinization, cells were treated with 1× RIPA lysis buffer (50 mM Tris–HCl, pH 7.4, 150 mM NaCl, 0.25% deoxycholic acid, 1% NP-40, 1 mM EDTA and protease inhibitors) (Amresco, Solon, USA) to extract the total proteins. An aliquot of proteins from the total cell lysates (30 to 60 μg/lane) was separated by sodium dodecyl sulfate (10%) polyacrylamide gel electrophoresis (SDS–PAGE, Bio-Rad Laboratories, Hercules, CA), wet-transferred to NC membrane (Bio-Rad Laboratories, Hercules, CA) and blotted with primary antibodies specific for STAT3, p-STAT3, p-Jak2, Jak2, p-Src, Src, Erk, P-Erk, PARP, cleaved PARP, Bcl-2, Bax, Cyclin D1, P-gp and GAPDH. Bound immuno-complexes were detected using ChemiDOC™ XRS + system (Bio-Rad Laboratories, Hercules, CA).

[3] = tested on: LO2 cells; assay: MTT anti-proliferative assay, LO2; format: cell-based; conditions: normal human liver cells, Table 2 prints no unit, μM
Protocol: (§1) All cell lines were purchased from Cell Bank of Shanghai Institute of Biochemistry and Cell Biology, Chinese Academy of Sciences (Shanghai, China). Human breast carcinoma cells (MCF-7 and MCF-7/DOX), breast epithelial cells (MCF-10A) and normal human liver cells (LO2) were maintained in RPMI-1640 medium. All cells were supplemented with 12% fetal bovine serum containing 50 μg/ml penicillin and 50 μg/ml streptomycin. Cells were grown to 80% confluency in a tissue culture flask at 37 °C in a humidified atmosphere containing 5% CO2, and then were trypsinized with 1 × Trypsin-Versene and split. The MCF-7/DOX cell line we used was established from its parental cell line MCF-7 cell by gradually increasing the concentration of DOX to which the cells were exposed in a stepwise manner over a period of 8 months. […] The cells were incubated in drug-free medium for at least 1 week before use.
(§2) Cells (MCF-7, MCF-7/DOX, MCF-10A, LO2) were seeded in 96-well plates at a density of 3,000–6,000 cells per well. The cells were incubated overnight (16 h) in a humidified 5% CO2 incubator at 37 °C. After media removal, different concentrations of test compounds were added in triplicate to the plates in 200 μL of fresh media and were incubated with the cells at 37 °C for 48 h. […] Cell viability was evaluated using 3-(4, 5-dimethylthiazolyl)-2,5-diphenyltetrazoliumbromide (MTT). The absorbance was read by an ELISA reader (SpectraMax Plus384, Molecular Devices, Sunnyvale, CA) at a test wavelength of 570 nm and a reference wavelength of 630 nm. Cell viability was calculated using the following formula: […]

[4] = tested on: Bax gene; assay: Quantitative real-time RT-PCR of Bax; format: cell-based, human; conditions: 24 h
Protocol: Levels of mRNA expression were analyzed with the RT-PCR assay, with total RNA isolated from MCF-7 or MCF-7/DOX cells using an EASYspin Plus tissue/cell RNA extraction kit (Aidlab Biotechnologies Co. Ltd). RNA was quantified by measuring absorption at 260 nm and 1 μg of RNA was reverse transcribed to cDNA using the Transcriptor First Strand cDNA Synthesis Kit (Roche Diagnostics, Basel, Switzerland). Thermal cycling conditions included 95 °C initial denaturation for 5 min, followed by 40 cycles of denaturation (10 s at 95 °C), annealing (15 s at 60 °C) and extension (15 s at 72 °C with a single fluorescence measurement), a melt curve program (60–95 °C with a 0.11 °C/s heat increase and continuous fluorescence measurement) and a cooling step to 40 °C. The Δ cycle threshold method was used for the calculation of relative differences in mRNA abundance with a LightCycler 480 (Roche Molecular Biochemicals, Mannheim, Germany). The data were normalized to the expression of GAPDH. The results were expressed as fold-changes. The RT-PCR primers that were used in this study are listed in the supporting information.

[5] = tested on: STAT3; assay: IL-6 induced STAT3 phosphorylation (western blot); format: cell-based, human; conditions: 6 h, IL-6 50 ng/mL 30 min
Protocol: MCF-7 or MCF-7/DOX cells were seeded in 6-well plates and allowed to adhere overnight. The following day, the cells were serum-starved. The cells were then left untreated or were treated with 6b (0.5–4 μM). After 6 h, the untreated and 6b-treated cells were stimulated with IL-6 (50 ng/ml). The cells were harvested after 30 min and analyzed by western blot.

[6] = tested on: MCF-7/DOX cells; assay: MTT anti-proliferative assay, MCF-7/DOX; format: cell-based, human; conditions: Homo sapiens, MCF7-DOX; MTT, 48 h; read-out: MCF-7/DOX IC50 ± SD
Protocol: as §1, §2

[7] = tested on: MCF-7 cells; assay: Flow cytometry of the cell cycle, MCF-7; format: cell-based, human; conditions: MCF-7, 24 h
Protocol: MCF-7 or MCF-7/DOX cells were plated in 6-well culture plates (1.5 × 10^5 cells per well). After incubation overnight, various concentrations of 6b or curcumin were added and cells were incubated for 24 h. Cells were harvested, washed with cold PBS, and incubated with pre-cooled 70% ethanol for a minimum of 4 h at 4 °C to fix them. The cells were then centrifuged, carefully aspirated from the supernatant, and re-suspended in a propidium iodide (final concentration, 40 μg/ml) and RNase A (final concentration, 100 μg/ml) solution at a final cell density of 0.5 × 10^6 cells/ml. The suspension was incubated at 37 °C for 30 min prior to analysis by flow cytometry.

For `COc1ccc(/C=C/C(=O)N2CCN(C(=O)C3=Cc4cc(Br)ccc4S3(=O)=O)CC2)cc1` [Compound 6b, (E)-1-(4-(5-bromo-1,1-dioxidobenzo[b]thiophene-2-carbonyl)piperazin-1-yl)-3-(4-methoxyphenyl)prop-2-en-1-one], the apoptosis [1] was “little”, the “expression of Cyclin D1 (protein)” value [2] was “inhibited” and the IC50 ([3]; 48 h) was 8.31 ± 0.41 µM. The IC50 ([3]; Homo sapiens, L02, 48 h) was 8.3 µM, the “Bax gene expression increase” value ([4]; MCF-7/DOX cells, 1.0 μM) was 14.0% and the “Bax gene expression increase” value ([4]; MCF-7/DOX cells, 2.0 μM) was 76.5%. The “Bax gene expression increase” value ([4]; MCF-7/DOX cells, 4.0 μM) was 125.0%, the “Bax gene level (in words)” value ([4]; MCF-7 and MCF-7/DOX cells) was “upregulated” and the “Bax gene expression increase” value ([4]; MCF-7 cells, 1.0 μM) was 15.0%. The “Bax gene expression increase” value ([4]; MCF-7 cells, 2.0 μM) was 71.5%, the “Bax gene expression increase” value ([4]; MCF-7 cells, 4.0 μM) was 97.5% and the “STAT3 phosphorylation induced by IL-6” value ([5]; MCF-7, 4 μM) was “almost completely abolished”. The “IL-6-induced phosphorylation levels of STAT3” value ([5]; MCF-7, low concentration (0.5–4 μM tested)) was “decreased”, the IC50 [6] was 0.4 ± 0.01 µM and the “cells in the Sub-G1 phase” value [7] was “significant increase”. For the same compound, the “percentage of cells in S phase” value [7] was “increased”.
